Legend:
[1] = biological target: T1, Sterol O-acyltransferase 1 (Rattus norvegicus) (UniProt O70536); assay: Percent inhibition of Acyl coenzyme A:cholesterol acyltransferase at a concentration of 25(micro M) was evaluated in rat liver microsomes using ACAT microsomal assay.; settings: Microsome
T1 sequence (whole entry): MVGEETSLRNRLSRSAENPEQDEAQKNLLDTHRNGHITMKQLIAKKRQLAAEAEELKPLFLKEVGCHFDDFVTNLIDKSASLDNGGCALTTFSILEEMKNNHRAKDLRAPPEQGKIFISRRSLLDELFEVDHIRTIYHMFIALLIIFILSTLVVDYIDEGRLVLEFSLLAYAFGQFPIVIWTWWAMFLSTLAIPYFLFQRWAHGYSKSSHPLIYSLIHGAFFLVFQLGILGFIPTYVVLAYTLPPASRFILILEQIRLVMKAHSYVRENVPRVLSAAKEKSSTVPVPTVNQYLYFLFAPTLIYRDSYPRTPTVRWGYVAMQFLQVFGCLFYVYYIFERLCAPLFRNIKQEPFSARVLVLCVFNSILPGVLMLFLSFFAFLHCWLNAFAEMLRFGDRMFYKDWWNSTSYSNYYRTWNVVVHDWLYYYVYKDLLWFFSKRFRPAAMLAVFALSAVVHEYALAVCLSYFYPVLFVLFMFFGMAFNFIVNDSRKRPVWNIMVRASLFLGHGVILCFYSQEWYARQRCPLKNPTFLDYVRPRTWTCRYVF

[2] = biological target: T2, Sterol O-acyltransferase 1 (Rattus norvegicus, UniProt O70536); assay: Inhibitory activity was evaluated in rat liver microsomes using Acyl coenzyme A:cholesterol acyltransferase microsomal assay.; design: species or system Microsome
T2 sequence (O70536 whole entry): T1 sequence (whole entry)

Row | SMILES | inhibition [1] | IC50 [2]
1 | CCCCCCCC/C=C\CCCCCCCC(=O)N1CCc2cc(OC)c(OC)cc2C1Cc1ccccc1 (stereo unspecified) | 63% | 
2 | CCCCCCCC/C=C\CCCCCCCC(=O)N1CCc2cc(OC)c(OC)cc2C1Cc1ccc(OC)c(OC)c1 (stereo unspecified) | 91% | 2.7 µM
3 | CCCCCCCC/C=C\CCCCCCCC(=O)N1Cc2cc(OC)c(OC)cc2CC1c1ccccc1 (stereo unspecified) | 86% | 3.8 µM
4 | CCCCCCCC/C=C\CCCCCCCC(=O)N1CCc2ccccc2C1Cc1ccccc1 (stereo unspecified) | 81% | 4.8 µM
5 | CCCCCCCC/C=C\CCCCCCCC(=O)NC(Cc1ccccc1)c1ccccc1 (stereo unspecified) | 87% | 0.15 µM
6 | CCCCCCCC/C=C\CCCCCCCC(=O)N1CCc2cc(O)c(O)cc2C1Cc1ccccc1 (stereo unspecified) | 73% | 
7 | CCCCCCCC/C=C\CCCCCCCC(=O)N1Cc2cc(OC)c(OC)cc2CC1c1ccc(OC)c(OC)c1 (stereo unspecified) | 67% | 

— ChEMBL document CHEMBL1127003, “N-oleoyl-1,2,3,4-tetrahydroisoquinolines as conformationally restricted inhibitors of acyl-CoA:cholesterol acyl transferase (ACAT)” (Bioorg Med Chem Lett, 1993)
